Active and inactive are the calls of the source. The calls are words filed in the database; no cut-off is given here.
Key:
K562 [1] = test: Anti-proliferative activity against human K562 cells assessed as growth inhibition incubated for 72 hrs by alamar blue staining based fluorometric assay; assay type: functional
Jurkat [2] = test: Induction of apoptosis in human Jurkat cells assessed as increase in intracellular calcium level incubated for 5 mins in presence of Iodo-1 by spectrofluorimetric analysis; assay type: functional, cell-based; details: dose 2.5-10 µM
HuT78 [3] = test: Anti-proliferative activity against human HuT78 cells assessed as growth inhibition incubated for 72 hrs by alamar blue staining based fluorometric assay; assay type: functional
J.gamma1 [4] = test: Induction of apoptosis in human J.gamma1 cells at 10 uM incubated for 2 days in presence of U-73343 by Annexin-V staining based flow cytometry analysis; assay type: functional, cell-based; details: time 2.0 day
RPMI-8226 [5] = test: Induction of apoptosis in human RPMI-8226 cells assessed as cell death at 5 uM incubated for 2 days by Annexin-V staining based flow cytometry analysis; assay type: functional; details: time 2.0 day
Jurkat [6] = test: Downregulation of apoptosis in human Jurkat cells incubated for 24 hrs in presence of BAPTA-AM by Annexin-V staining based flow cytometry analysis; assay type: functional, cell-based; details: dose 10.0 µM
RPMI-8226 [7] = test: Anti-proliferative activity against human RPMI-8226 cells assessed as growth inhibition incubated for 72 hrs by alamar blue staining based fluorometric assay; assay type: functional
HeLa = test: Anti-proliferative activity against human HeLa cells assessed as growth inhibition incubated for 72 hrs by alamar blue staining based fluorometric assay; assay type: functional
RKO [8] = test: Anti-proliferative activity against human RKO cells assessed as growth inhibition incubated for 72 hrs by alamar blue staining based fluorometric assay; assay type: functional
HCT-116 [9] = test: Anti-proliferative activity against human HCT-116 cells assessed as growth inhibition incubated for 72 hrs by alamar blue staining based fluorometric assay; assay type: functional
Raji [10] = test: Anti-proliferative activity against human Raji cells assessed as growth inhibition incubated for 72 hrs by alamar blue staining based fluorometric assay; assay type: functional
J.gamma1 [11] = test: Downregulation of apoptosis in human J.gamma1 cells at 10 uM incubated for 24 hrs in presence of BAPTA-AM by Annexin-V staining based flow cytometry analysis
OVCAR-3 [12] = test: Anti-proliferative activity against human OVCAR-3 cells assessed as growth inhibition incubated for 72 hrs by alamar blue staining based fluorometric assay; assay type: functional
Jurkat [13] = test: Induction of apoptosis in human Jurkat cells assessed as increase in cytosolic cytochrome c level at 10 uM incubated for 12 to 24 hrs by Western blotting analysis; assay type: functional, cell-based; details: time lower 12.0 hrs, time upper […]
Jurkat [14] = test: Downregulation of apoptosis in human Jurkat cells at 10 uM incubated for 2 days in presence of U-73343 by Annexin-V staining based flow cytometry analysis; assay type: functional, cell-based; details: time 2.0 day
DB [15] = test: Induction of apoptosis in human DB cells assessed as cell death at 5 uM incubated for 2 days by Annexin-V staining based flow cytometry analysis; assay type: functional; details: time 2.0 day
J.gamma1 [16] = test: Induction of apoptosis in human J.gamma1 cells at 10 uM incubated for 2 days in presence of U-73122 by Annexin-V staining based flow cytometry analysis; assay type: functional, cell-based; details: time 2.0 day
J.gamma1 [17] = test: Induction of apoptosis in human J.gamma1 cells assessed as abolished intracellular calcium level at 10 uM incubated for 5 mins in presence of Iodo-1 by spectrofluorimetric analysis; assay type: functional, cell-based
Ramos [18] = test: Induction of apoptosis in human Ramos cells assessed as cell death at 5 uM incubated for 2 days by Annexin-V staining based flow cytometry analysis; assay type: functional; details: time 2.0 day
U-87 MG [19] = test: Anti-proliferative activity against human U87 cells assessed as growth inhibition incubated for 72 hrs by alamar blue staining based fluorometric assay; assay type: functional, U-87MG ATCC
CCRF-HSB-2 [20] = test: Anti-proliferative activity against human CCRF-HSB-2 cells assessed as growth inhibition incubated for 72 hrs by alamar blue staining based fluorometric assay; assay type: functional
Jurkat [21] = test: Induction of apoptosis in human Jurkat cells assessed as increase in intracellular calcium level at 2.5 to 10 uM incubated for 5 mins in presence of Iodo-1 and Ionomycin by spectrofluorimetric analysis; assay type: functional, cell-based; details: dose 2.5-10 µM
MCF7 [22] = test: Induction of apoptosis in human MCF7 cells incubated for 72 hrs by Annexin-V staining based flow cytometry analysis relative to control; assay type: functional
J.gamma1 [23] = test: Downregulation of apoptosis in human J.gamma1 cells at 5 uM incubated for 2 days by Annexin-V staining based flow cytometry analysis; assay type: functional, cell-based; details: time 2.0 day
Jurkat [24] = test: Induction of apoptosis in human Jurkat cells assessed as decrease in FL-Bid at 5 uM incubated for 24 hrs by Western blotting analysis
CCRF-HSB-2 [25] = test: Induction of apoptosis in human CCRF-HSB-2 cells assessed as cell death at 5 uM incubated for 2 days by Annexin-V staining based flow cytometry analysis; assay type: functional; details: time 2.0 day
K562 [26] = test: Induction of apoptosis in human K562 cells assessed as cell death at 5 uM incubated for 2 days by Annexin-V staining based flow cytometry analysis; assay type: functional; details: time 2.0 day
DB [27] = test: Anti-proliferative activity against human DB cells assessed as growth inhibition incubated for 72 hrs by alamar blue staining based fluorometric assay; assay type: functional
HCT-116 [28] = test: Induction of apoptosis in human HCT-116 cells incubated for 72 hrs by Annexin-V staining based flow cytometry analysis relative to control; assay type: functional
J.gamma1 [29] = test: Induction of apoptosis in human J.gamma1 cells at 5 uM incubated for 24 hrs in presence of thapsigargin by Annexin-V staining based flow cytometry analysis relative to control; assay type: functional
SUD4 [30] = test: Anti-proliferative activity against human SU-DHL-4 cells assessed as growth inhibition incubated for 72 hrs by alamar blue staining based fluorometric assay; assay type: functional
MOLT-4 [31] = test: Anti-proliferative activity against human MOLT-4 cells assessed as growth inhibition incubated for 72 hrs by alamar blue staining based fluorometric assay; assay type: functional
Jurkat [32] = test: Induction of apoptosis in human Jurkat cells assessed as increased caspase-3 activity at 5 uM incubated for 12 to 48 hrs by colorimetric assay; assay type: functional, cell-based; details: time 12-48 hrs
SUD4 [33] = test: Induction of apoptosis in human SU-DHL-4 cells assessed as cell death at 5 uM incubated for 2 days by Annexin-V staining based flow cytometry analysis; assay type: functional; details: time 2.0 day
MCF7 [34] = test: Anti-proliferative activity against human MCF7 cells assessed as growth inhibition incubated for 72 hrs by alamar blue staining based fluorometric assay; assay type: functional
Jurkat [35] = test: Induction of apoptosis in human Jurkat cells at 5 uM incubated for 24 hrs in presence of thapsigargin by Annexin-V staining based flow cytometry analysis relative to control; assay type: functional
Jurkat [36] = test: Induction of apoptosis in human Jurkat cells assessed as intracellular calcium level at 10 uM in presence of Iodo-1 and U73343 by spectrofluorimetric analysis; assay type: functional, cell-based
Jurkat [37] = test: Cytotoxicity in human Jurkat cells assessed as tubulin acetylation at <25 uM incubated for 24 hrs by Western blotting analysis; assay type: functional, cell-based
OVCAR-3 [38] = test: Induction of apoptosis in human OVCAR-3 cells incubated for 72 hrs by Annexin-V staining based flow cytometry analysis relative to control; assay type: functional
Jurkat [39] = test: Anti-proliferative activity against human Jurkat cells assessed as growth inhibition incubated for 72 hrs by alamar blue staining based fluorometric assay; assay type: functional
Jurkat [40] = test: Induction of apoptosis in human Jurkat cells assessed as cell death at 5 uM incubated for 2 days by Annexin-V staining based flow cytometry analysis; assay type: functional; details: time 2.0 day
Jurkat [41] = test: Induction of apoptosis in human Jurkat cells assessed as PARP cleavage at 5 uM incubated for 48 hrs by Western blotting analysis; assay type: functional, cell-based
THP-1 [42] = test: Induction of apoptosis in human THP-1 cells assessed as cell death at 5 uM incubated for 2 days by Annexin-V staining based flow cytometry analysis; assay type: functional; details: time 2.0 day
HuT78 [43] = test: Induction of apoptosis in human HuT78 cells assessed as cell death at 5 uM incubated for 2 days by Annexin-V staining based flow cytometry analysis; assay type: functional; details: time 2.0 day
Ramos [44] = test: Anti-proliferative activity against human Ramos cells assessed as growth inhibition incubated for 72 hrs by alamar blue staining based fluorometric assay; assay type: functional
THP-1 [45] = test: Anti-proliferative activity against human THP-1 cells assessed as growth inhibition incubated for 72 hrs by alamar blue staining based fluorometric assay; assay type: functional
Jurkat [46] = test: Downregulation of apoptosis in human Jurkat cells incubated for 2 days in presence of U73122 by Annexin-V staining based flow cytometry analysis; assay type: functional, cell-based; details: dose 10.0 µM, time 2.0 day
Jurkat [47] = test: Induction of apoptosis in human Jurkat cells assessed as decrease in intracellular calcium level at 10 uM in presence of Iodo-1 and U73122 by spectrofluorimetric analysis; assay type: functional, cell-based
MOLT-4 [48] = test: Induction of apoptosis in human MOLT-4 cells assessed as cell death at 5 uM incubated for 2 days by Annexin-V staining based flow cytometry analysis; assay type: functional; details: time 2.0 day
RKO [49] = test: Induction of apoptosis in human RKO cells incubated for 72 hrs by Annexin-V staining based flow cytometry analysis relative to control; assay type: functional
J.gamma1 [50] = test: Induction of apoptosis in human J.gamma1 cells assessed as cytochrome c release from mitochondria at 10 uM incubated for 12 to 24 hrs by Western blotting analysis; assay type: functional, cell-based; details: time lower 12.0 hrs, time upper […]
Raji [51] = test: Induction of apoptosis in human Raji cells assessed as cell death at 5 uM incubated for 2 days by Annexin-V staining based flow cytometry analysis; assay type: functional; details: time 2.0 day
Jurkat [52] = test: Cytotoxicity in human Jurkat cells assessed as histone acetylation at <25 uM incubated for 24 hrs by Western blotting analysis; assay type: functional, cell-based
U-87 MG [53] = test: Induction of apoptosis in human U87 cells incubated for 72 hrs by Annexin-V staining based flow cytometry analysis relative to control; assay type: functional, U-87MG ATCC
A549 [54] = test: Induction of apoptosis in human A549 cells incubated for 72 hrs by Annexin-V staining based flow cytometry analysis relative to control; assay type: functional
Jurkat [55] = test: Cytotoxicity in tubulin in human Jurkat cells assessed as tubulin acetylation at 0.2 uM incubated for 24 hrs by Western blotting analysis; assay type: functional, cell-based
A549 [56] = test: Anti-proliferative activity against human A549 cells assessed as growth inhibition incubated for 72 hrs by alamar blue staining based fluorometric assay; assay type: functional
Jurkat [57] = test: Cytotoxicity in human Jurkat cells assessed as histone acetylation at 0.2 uM incubated for 24 hrs by Western blotting analysis; assay type: functional, cell-based

## COc1ccc(Cn2ccc3ccc(C(=O)NO)cc32)cc1
K562 [1]
  GI50: 33.6 µM
Jurkat [2]
  Activity: Dose-Dependent Effect
HuT78 [3]
  GI50: 4000 nM
J.gamma1 [4]
  Activity: inactive
RPMI-8226 [5]
  Activity: inactive
Jurkat [6]
  Activity: Dose-Dependent Effect
RPMI-8226 [7]
  GI50: 28 µM
HeLa
  GI50: > 20000 nM
RKO [8]
  GI50: 14 µM
HCT-116 [9]
  GI50: > 20000 nM
Raji [10]
  GI50: 6.8 µM
J.gamma1 [11]
  Activity: inactive
OVCAR-3 [12]
  GI50: 6 µM
Jurkat [13]
  Activity: Active
Jurkat [14]
  Activity: inactive
DB [15]
  Activity: inactive
J.gamma1 [16]
  Activity: inactive
J.gamma1 [17]
  Activity: inactive
Ramos [18]
  Activity: inactive
U-87 MG [19]
  GI50: 17 µM
CCRF-HSB-2 [20]
  GI50: 1400 nM
Jurkat [21]
  Activity: Active
MCF7 [22]
  Activity: 0%
J.gamma1 [23]
  Activity: Active
Jurkat [24]
  Activity: inactive
CCRF-HSB-2 [25]
  Activity: Active
K562 [26]
  Activity: inactive
DB [27]
  GI50: 21.2 µM
HCT-116 [28]
  Activity: 3%
J.gamma1 [29]
  Activity: 2%
SUD4 [30]
  GI50: 8.2 µM
MOLT-4 [31]
  GI50: 3300 nM
Jurkat [32]
  Activity: Active
SUD4 [33]
  Activity: inactive
MCF7 [34]
  GI50: > 20000 nM
Jurkat [35]
  Activity: > 30%
Jurkat [36]
  Activity: Active
Jurkat [37]
  Activity: inactive
OVCAR-3 [38]
  Activity: 15%
Jurkat [39]
  GI50: 2400 nM
Jurkat [40]
  Activity: Active
Jurkat [41]
  Activity: Active
THP-1 [42]
  Activity: inactive
HuT78 [43]
  Activity: Active
Ramos [44]
  GI50: 6.1 µM
THP-1 [45]
  GI50: 15.4 µM
Jurkat [46]
  Activity: Dose-Dependent Effect
Jurkat [47]
  Activity: Active
MOLT-4 [48]
  Activity: Active
RKO [49]
  Activity: 0%
J.gamma1 [50]
  Activity: inactive
Raji [51]
  Activity: inactive
Jurkat [52]
  Activity: inactive
U-87 MG [53]
  Activity: 0%
A549 [54]
  Activity: 0%

## CN(C)Cc1c(C(=O)NCCOc2ccc(C(=O)NO)cc2)oc2ccccc12.Cl [ABEXINOSTAT HYDROCHLORIDE]
K562 [1]
  GI50: 0.15 µM
HuT78 [3]
  GI50: 110 nM
RPMI-8226 [7]
  GI50: 0.12 µM
HeLa
  GI50: 200 nM
RKO [8]
  GI50: 1.5 µM
HCT-116 [9]
  GI50: 200 nM
Raji [10]
  GI50: 0.12 µM
OVCAR-3 [12]
  GI50: 0.16 µM
U-87 MG [19]
  GI50: 1.2 µM
CCRF-HSB-2 [20]
  GI50: 100 nM
MCF7 [22]
  Activity: 37%
Jurkat [24]
  Activity: Active
DB [27]
  GI50: 0.15 µM
HCT-116 [28]
  Activity: 70%
SUD4 [30]
  GI50: 0.1 µM
MOLT-4 [31]
  GI50: 120 nM
MCF7 [34]
  GI50: 150 nM
Jurkat [55]
  Activity: Active
A549 [56]
  GI50: 180 nM
OVCAR-3 [38]
  Activity: 55%
Jurkat [39]
  GI50: 110 nM
Jurkat [57]
  Activity: Active
Ramos [44]
  GI50: 0.13 µM
THP-1 [45]
  GI50: 0.075 µM
RKO [49]
  Activity: 45%
A549 [54]
  Activity: 47%
